Like-named read-outs stand apart in the source and are kept apart here.
Assays:
Leishmania braziliensis = assay: Leishmanicidal activity against promastigotes (resazurin); type: cell-based; conditions: for IC50: promastigote form, 24 h treatment, resazurin, read-out: IC50 L. braziliensis
Protocol: (§1) The Leishmania infantum and Leishmania braziliensis strains were maintained in Schneider medium supplemented with 20% of SFB (Schneider 20%), cultivated in […] bottles and stored at 28 °C in a BOD oven. For the assays, parasites at the 5th day stationary growth phase were used.
(§2) The promastigotes metacyclic form of Leishmania infantum and Leishmania braziliensis were first filtered with an insulin syringe to break up rosettes and, then, were isolated from the culture in the stationary phase by centrifugation of 400× g for 4 min at a temperature of 4 °C [53]. The supernatant was subjected to a new centrifugation, heavier, of 2000× g for 30 min, also at 4 °C. The supernatant was discarded and the cell pallet formed from this centrifugation was resuspended in 10 mL of 10% Schneider medium. The process ensured the removal of cellular debris and dead parasites, as well as possible crystals from the culture medium, so that the quality of the experiment was guaranteed. Then, the promastigotes were diluted to 1:10 in paraformaldehyde (PFA) for counting in a Neubauer Chamber, with the concentrations adjusted for each experiment.
(§3) An amount of 1 × 10^7 parasites per well was used. The parasites were plated in 96-well plates. Then, the compounds were added in triplicate, starting at a concentration of 500 µM, with serial dilutions being performed up to a concentration of 3.9 µM [53]. The treatment was carried out for 24 h and, after adding 5 µL of resazurin, the fluorescence was read using a Enspire model spectrofluorometer (Perkin-Elmer, Waltham, MA, USA).

Leishmania infantum = assay: as above; type: cell-based; conditions: for IC50: promastigote form, 24 h treatment, resazurin, read-out: IC50 L. infantum
Protocol: as §1, §2, §3

Vero cells [1] = system: Vero cells; parameters: method as in PMID 31152929; conditions: value for the reference drug in Table 5; cited from earlier work
Vero cells [2] = assay: Cytotoxicity assay on Vero cells (resazurin); type: cell-based, African green monkey; conditions: 24 h treatment
Protocol: For the experiment, Vero cells (ATCC CRL-1587) were used in Roswell Parl Memorial Institute (RPMI) medium with 10% fetal bovine serum (FBS) (RPMI 10%) and 20 μg/mL of Gentamicin. They were cultivated in culture bottles of […] and kept in an oven at 37 °C with 5% carbon dioxide (CO2). When picked or used on the day of the experiment, the cells were detached from the wall of the bottles with saline and 1X trypsin/EDTA. To find out how many cells there were in the bottle, it was diluted in Turkey liquid and then we proceeded with the counting in the Neubauer Chamber to calculate the desired concentrations. The Vero cells were plated at […] cells per well, in 96-well plates, and kept in an incubator with 5% CO2 at 37 °C for 24 h. Then, the compounds were added in triplicate, starting at a concentration of 500 µM, with serial dilution being performed up to a concentration of 3.9 µM [54]. The treatment was carried out for 24 h, and, after adding 5 µL of resazurin, the fluorescence was read using a spectrofluorometer (EnSpire Perkin-Elmer, Waltham, MA, USA).

[3] = Solubility in organic solvents; type: physicochemical

| Compound | IC50 (Leishmania braziliensis) [µM] | IC50 (Leishmania infantum) [µM] | CC50 (Vero cells [1]) [µM] | CC50 (Vero cells [2]) [µM] | SI L. braziliensis (Leishmania braziliensis; selectivity index = CC50 (Vero) / IC50 (L. braziliensis promastigotes)) | SI L. infantum (Leishmania infantum; selectivity index = CC50 (Vero) / IC50 (L. infantum promastigotes)) | Solubility in solvents, in words [3] |
| --- | --- | --- | --- | --- | --- | --- | --- |
| Glucantime [reference compound] | 176 to 192 | 113 to 130 | 1630 | – | – | – | – |
| Cc1ccc(S(=O)(=O)NNC(Nc2ccc(Cl)cc2)=[S][Au+][S]=C(NNS(=O)(=O)c2ccc(C)cc2)Nc2ccc(Cl)cc2)cc1.[Cl-] [Au4, [Au(HL4^ClPh)2]Cl] | 277.6 ± 0.163 | 38.18 ± 0.158 | – | 32 | 0.12 | 0.84 | low solubility |

From PMC11053681, “Gold(I) and Silver(I) Complexes Containing Hybrid Sulfonamide/Thiourea Ligands as Potential Leishmanicidal Agents” (Pharmaceutics, 2024)
